The results in this text go back to patent publication US8415469B2, “Compounds and methods for kinase modulation, and indications therefor” (Plexxikon Inc., priority 2005, dated 2013).

Common to all, as to type: biochemical
The target in one assay is T1, B-Raf V600E (Homo sapiens, UniProt P15056, V600E).
T1 construct: P4254. pFastBacBD-CDC37 BRAF D437-K722-X, V600E; His6 with pFastBac HT leader (TEV site) (N); made in house; host or cells: Sf9 (baculovirus; chaperone CDC37 co-expressed)
Description: AlphaScreen kinase assay, B-Raf V600E. As to conditions: read-out: IC50, activity toward kinase B-Raf V600E. Background: Bead proximity is the source of the signal in Alpha formats.

The target in a further assay is T2, Fms (Homo sapiens, UniProt P07333).
T2 construct: purchased Upstate Biotechnology
Briefly: AlphaScreen kinase assay, Fms. The conditions noted are these: read-out: IC50, activity toward kinase Fms.

In another assay the target is T3, B-Raf (Homo sapiens, UniProt P15056).
T3 construct: purchased Upstate Biotechnology
Description: AlphaScreen kinase assay, B-Raf. The conditions noted are these: read-out: IC50, activity toward kinase B-Raf.

The next assay deals with T4, FGFR1 (Homo sapiens, UniProt P11362, C488A/C584S).
T4 construct: P1351.pET N6 BI-PTP FGFR A458-E765-X C488A, C584S; made in house; host or cells: E. coli (PTP1B co-expressed)
Briefly: AlphaScreen kinase assay, FGFR1. The conditions noted are these: read-out: IC50, activity toward kinase FGFR.

A further assay addresses T5, Kit (Homo sapiens, UniProt P10721).
T5 construct: P1332.N6 BI PTP KIT M552-K948-X COD; His6 (N); made in house; host or cells: E. coli (PTP1B co-expressed)
Briefly: AlphaScreen kinase assay, Kit. The conditions noted are these: read-out: IC50, activity toward kinase Kit.

T1 sequence (P15056 with tags, fused parts or gaps V600E): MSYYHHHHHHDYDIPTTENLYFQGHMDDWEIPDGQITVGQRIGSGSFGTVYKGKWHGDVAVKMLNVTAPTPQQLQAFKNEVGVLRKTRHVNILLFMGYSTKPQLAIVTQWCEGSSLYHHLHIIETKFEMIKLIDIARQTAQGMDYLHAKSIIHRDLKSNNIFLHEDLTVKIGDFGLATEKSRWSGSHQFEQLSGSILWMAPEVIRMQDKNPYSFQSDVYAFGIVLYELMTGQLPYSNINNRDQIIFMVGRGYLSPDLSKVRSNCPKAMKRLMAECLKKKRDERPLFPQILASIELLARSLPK
T2 sequence (P07333 20-972): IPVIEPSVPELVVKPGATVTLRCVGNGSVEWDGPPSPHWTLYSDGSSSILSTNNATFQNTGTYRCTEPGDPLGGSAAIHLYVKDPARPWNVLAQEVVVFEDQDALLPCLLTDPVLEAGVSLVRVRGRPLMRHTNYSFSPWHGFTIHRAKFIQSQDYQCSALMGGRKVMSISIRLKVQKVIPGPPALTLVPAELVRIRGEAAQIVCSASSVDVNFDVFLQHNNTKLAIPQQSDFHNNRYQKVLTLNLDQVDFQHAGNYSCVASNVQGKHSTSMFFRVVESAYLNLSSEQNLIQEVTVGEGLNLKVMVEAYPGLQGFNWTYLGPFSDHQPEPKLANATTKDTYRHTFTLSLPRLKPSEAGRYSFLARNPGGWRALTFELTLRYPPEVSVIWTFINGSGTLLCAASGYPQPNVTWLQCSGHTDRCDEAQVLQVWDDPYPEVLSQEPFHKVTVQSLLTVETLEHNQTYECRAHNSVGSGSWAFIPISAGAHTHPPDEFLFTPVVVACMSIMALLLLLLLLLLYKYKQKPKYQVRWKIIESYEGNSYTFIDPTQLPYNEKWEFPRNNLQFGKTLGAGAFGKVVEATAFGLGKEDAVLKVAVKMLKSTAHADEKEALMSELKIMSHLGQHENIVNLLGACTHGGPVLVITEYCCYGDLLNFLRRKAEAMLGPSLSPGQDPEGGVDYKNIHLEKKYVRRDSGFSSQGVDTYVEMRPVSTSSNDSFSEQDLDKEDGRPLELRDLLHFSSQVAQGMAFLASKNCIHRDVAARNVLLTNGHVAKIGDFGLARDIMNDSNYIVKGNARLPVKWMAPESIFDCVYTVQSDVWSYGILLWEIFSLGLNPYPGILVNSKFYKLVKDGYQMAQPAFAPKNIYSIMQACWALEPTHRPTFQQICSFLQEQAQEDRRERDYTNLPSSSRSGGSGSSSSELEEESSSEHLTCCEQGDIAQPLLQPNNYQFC
T4 sequence (P11362 458-765 C488A/C584S): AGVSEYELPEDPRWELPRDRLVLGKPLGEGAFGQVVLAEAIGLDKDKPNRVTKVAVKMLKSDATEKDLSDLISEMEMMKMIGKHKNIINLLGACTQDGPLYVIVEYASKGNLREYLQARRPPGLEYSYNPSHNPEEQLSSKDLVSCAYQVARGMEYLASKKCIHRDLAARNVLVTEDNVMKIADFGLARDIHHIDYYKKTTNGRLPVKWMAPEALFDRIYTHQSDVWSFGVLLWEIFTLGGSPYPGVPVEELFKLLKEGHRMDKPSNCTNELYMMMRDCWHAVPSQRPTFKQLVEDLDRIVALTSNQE
T3 sequence (P15056 whole entry): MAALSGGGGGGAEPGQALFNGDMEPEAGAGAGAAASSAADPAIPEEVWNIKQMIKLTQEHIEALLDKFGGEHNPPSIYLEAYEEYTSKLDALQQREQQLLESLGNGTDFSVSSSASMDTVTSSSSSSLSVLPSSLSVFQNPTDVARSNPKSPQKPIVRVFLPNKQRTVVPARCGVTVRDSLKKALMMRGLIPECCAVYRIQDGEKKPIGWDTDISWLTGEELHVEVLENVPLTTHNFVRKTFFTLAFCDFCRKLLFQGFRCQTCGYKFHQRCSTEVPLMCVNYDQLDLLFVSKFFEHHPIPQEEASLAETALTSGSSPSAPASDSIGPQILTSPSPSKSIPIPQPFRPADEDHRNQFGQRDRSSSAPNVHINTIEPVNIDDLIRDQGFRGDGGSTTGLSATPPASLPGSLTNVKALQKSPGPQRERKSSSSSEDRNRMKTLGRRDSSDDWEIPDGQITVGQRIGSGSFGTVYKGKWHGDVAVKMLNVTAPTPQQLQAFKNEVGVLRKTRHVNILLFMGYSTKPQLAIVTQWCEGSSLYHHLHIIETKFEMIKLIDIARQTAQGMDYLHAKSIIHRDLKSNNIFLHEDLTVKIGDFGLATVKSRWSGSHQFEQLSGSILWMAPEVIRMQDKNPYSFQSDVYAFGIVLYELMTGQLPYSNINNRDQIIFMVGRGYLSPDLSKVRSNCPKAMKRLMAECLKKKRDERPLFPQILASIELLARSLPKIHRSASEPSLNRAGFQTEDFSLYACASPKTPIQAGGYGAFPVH
T5 sequence (P10721 with tags, fused parts or gaps): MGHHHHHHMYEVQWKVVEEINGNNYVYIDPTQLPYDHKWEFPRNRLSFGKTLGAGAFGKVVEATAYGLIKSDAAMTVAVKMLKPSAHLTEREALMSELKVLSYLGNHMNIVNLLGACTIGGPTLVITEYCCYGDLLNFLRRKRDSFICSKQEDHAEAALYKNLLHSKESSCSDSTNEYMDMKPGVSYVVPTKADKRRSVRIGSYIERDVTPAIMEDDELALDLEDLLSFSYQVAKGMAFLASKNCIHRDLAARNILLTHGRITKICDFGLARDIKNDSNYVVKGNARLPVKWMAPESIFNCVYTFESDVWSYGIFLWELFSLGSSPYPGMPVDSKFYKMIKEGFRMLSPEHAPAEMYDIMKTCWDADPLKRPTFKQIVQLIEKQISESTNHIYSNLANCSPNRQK

In the case of `O=C(c1cc(NS(=O)(=O)c2cccc(F)c2)ccc1F)c1c[nH]c2ncc(Cl)cc12` [Compound P-1665], the IC50 at B-Raf V600E, on Fms and on B-Raf was at most 10 µM each time.

`O=S(=O)(Nc1ccc(F)c(C(O)c2c[nH]c3ncc(Cl)cc23)c1F)c1ccc(C(F)(F)F)cc1` (stereo not shown) [Compound P-1539]: the IC50 on B-Raf V600E, at B-Raf and at FGFR1 was at most 10 µM in each case.

Regarding `O=C(c1c(F)ccc(NS(=O)(=O)c2ccc(F)cc2)c1F)c1c[nH]c2ncccc12` [Compound P-1865, N-[2,4-Difluoro-3-(1H-pyrrolo[2,3-b]pyridine-3-carbonyl)-phenyl]-4-fluoro-benzenesulfonamide], the IC50 on B-Raf V600E, at B-Raf and at Kit was at most 10 µM each time.

On to `COc1cc(NC(=O)Nc2cccc(C(=O)c3c[nH]c4ncccc34)c2)cc(C(F)(F)F)c1` [Compound P-1762, 1-(3-Methoxy-5-trifluoromethyl-phenyl)-3-[3-(1H-pyrrolo[2,3-b]pyridine-3-carbonyl)-phenyl]-urea], for which the 50% inhibitory concentration (IC50) on B-Raf V600E, at Fms and at B-Raf was at most 10 µM throughout.

In the case of `CCCS(=O)(=O)Nc1ccc(F)c(C(=O)c2c[nH]c3ncc(CCC(=O)O)cc23)c1F` [Compound P-1270, 3-3-[2,6-difluoro-3-(propane-1-sulfonylamino)-benzoyl]-1H-pyrrolo[2,3-b]pyridin-5-yl-propionic acid], the half-maximal inhibitory concentration (IC50) at B-Raf V600E, at B-Raf and on FGFR1 was at most 10 µM throughout.

For `N#Cc1ccc(S(=O)(=O)Nc2cccc(C(=O)c3c[nH]c4ncccc34)c2)cc1` [Compound P-1701], the IC50 at B-Raf V600E, on Fms and at B-Raf was at most 10 µM throughout.

`O=C(Nc1cccc(C(=O)c2c[nH]c3ncc(-c4ccc(F)cc4)cc23)c1)Nc1ccc(F)c(F)c1` [Compound P-1817, 1-(3,4-Difluoro-phenyl)-3-{3-[5-(4-fluoro-phenyl)-1H-pyrrolo[2,3-b]pyridine-3-carbonyl]-phenyl}-urea]: the IC50 on B-Raf V600E, at Fms and on B-Raf was at most 10 µM throughout.

Consider `COC(=O)c1ccc(S(=O)(=O)Nc2ccc(F)c(C(=O)c3c[nH]c4ncc(Cl)cc34)c2F)o1` [Compound P-1907, 5-[3-(5-Chloro-1H-pyrrolo[2,3-b]pyridine-3-carbonyl)-2,4-difluoro-phenylsulfamoyl]-furan-2-carboxylic acid methyl ester], for which the IC50 on B-Raf V600E, at Fms and on B-Raf was at most 10 µM in each case.

`COCCNC(=O)Nc1cccc(C(=O)c2c[nH]c3ncc(Cl)cc23)c1` [Compound P-1772, 1-[3-(5-Chloro-1H-pyrrolo[2 3-b]pyridine-3-carbonyl)-phenyl]-3-(2-methoxy-ethyl)-urea]: the IC50 on B-Raf V600E, on Fms and on B-Raf was at most 10 µM in each case.

As to `COc1ccc(NC(=O)Nc2cccc(C(=O)c3c[nH]c4ncccc34)c2)cn1` [Compound P-1763, 1-(6-Methoxy-pyridin-3-yl)-3-[3-(1H-pyrrolo[2,3-b]pyridine-3-carbonyl)-phenyl]-urea], the IC50 at B-Raf V600E, on Fms and at B-Raf was at most 10 µM in each case.

With `O=C(c1c(F)ccc(NS(=O)(=O)c2ccsc2)c1F)c1c[nH]c2ncc(Cl)cc12` [Compound P-1268, Thiophene-3-sulfonic acid [3-(5-chloro-1H-pyrrolo[2,3-b]pyridin-3-carbonyl)-2,4-difluoro-phenyl]-amide], the IC50 at B-Raf and at Kit was at most 10 µM in each case.

On to `O=C(Nc1ccc(C(F)(F)F)cc1)Nc1cccc(C(=O)c2c[nH]c3ncccc23)c1` [Compound P-1717, 1-[3-(1H-Pyrrolo[2,3-b]pyridine-3-carbonyl)-phenyl]-3-(4-trifluoromethyl-phenyl)-urea], for which the concentration for half-maximal inhibition (IC50) on B-Raf V600E, at Fms and on B-Raf was at most 10 µM in each case.

`COc1cnc2[nH]cc(Cc3c(F)ccc(OCc4ccccc4)c3F)c2c1` [Compound P-1804, 3-(3-Benzyloxy-2,6-difluoro-benzyl)-5-methoxy-1H-pyrrolo[2,3-b]pyridine]: the IC50 at B-Raf V600E, on Fms and at B-Raf was at most 10 µM each time.

Turning to `COc1cc(NC(=O)Nc2cccc(C(=O)c3c[nH]c4ncc(Cl)cc34)c2)cc(C(F)(F)F)c1` [Compound P-1773, 1-[3-(5-Chloro-1H-pyrrolo[2,3-b]pyridine-3-carbonyl)-phenyl]-3-(3-methoxy-5-trifluoromethyl-phenyl)-urea], the IC50 at B-Raf V600E, at Fms and on B-Raf was at most 10 µM each time.

With `O=C(Nc1cccc(Cl)c1)Nc1cccc(C(=O)c2c[nH]c3ncc(-c4cccnc4)cc23)c1` [Compound P-1726, 1-(3-Chloro-phenyl)-3-[3-(5-pyridin-3-yl-1H-pyrrolo[2,3-b]pyridine-3-carbonyl)-phenyl]-urea], the IC50 at B-Raf V600E, at Fms and on B-Raf was at most 10 µM in each case.

With `COCCOc1cnc2[nH]cc(C(=O)c3c(F)ccc(NS(=O)(=O)c4ccc(C(F)(F)F)cc4)c3F)c2c1` [Compound P-2005, N-{2,4-Difluoro-3-[5-(2-methoxy-ethoxy)-1H-pyrrolo[2,3-b]pyridine-3-carbonyl]-phenyl}-4-trifluoromethyl-benzenesulfonamide], the IC50 on B-Raf V600E, on Fms and on B-Raf was at most 10 µM throughout.

As for `CCCS(=O)(=O)Nc1ccc(F)c(C(=O)c2c[nH]c3ncc(-c4nc(C)c[nH]4)cc23)c1F` [Compound P-2006, Propane-1-sulfonic acid {2,4-difluoro-3-[5-(4-methyl-1H-imidazol-2-yl)-1H-pyrrolo[2,3-b]pyridine-3-carbonyl]-phenyl}-amide], the IC50 on B-Raf V600E, on Fms and on B-Raf was at most 10 µM in each case.

For `COc1cnc2[nH]cc(C(=O)c3cc(NS(=O)(=O)c4cccc(F)c4)ccc3Cl)c2c1` [Compound P-1664], the IC50 at B-Raf V600E, at Fms and on B-Raf was at most 10 µM each time.

Turning to `COc1ccc(NC(=O)Nc2cccc(C(=O)c3c[nH]c4ncc(Cl)cc34)c2)cn1` [Compound P-1774, 1-[3-(5-Chloro-1H-pyrrolo[2,3-b]pyridine-3-carbonyl)-phenyl]-3-(6-methoxy-pyridin-3-yl)-urea], the IC50 at B-Raf V600E, on Fms and at B-Raf was at most 10 µM throughout.

`COc1cccc(Cc2c[nH]c3ncc(Br)cc23)c1` [Compound P-0556]: the IC50 at B-Raf, at FGFR1 and on Kit was at most 10 µM throughout.

As for `O=C(Nc1cccnc1)Nc1cccc(C(=O)c2c[nH]c3ncccc23)c1` [Compound P-1781, 1-Pyridin-3-yl-3-[3-(1H-pyrrolo[2,3-b]pyridine-3-carbonyl)-phenyl]-urea], the IC50 at B-Raf V600E, on Fms and at B-Raf was at most 10 µM in each case.

Take `Oc1cccc(Nc2ccnc3[nH]ccc23)c1` [Compound P-0980]: the IC50 on B-Raf V600E and on B-Raf was at most 10 µM in each case.

With `COc1ccc(-c2cnc3[nH]cc(C(=O)c4c(F)ccc(NS(=O)(=O)c5cccc(F)c5)c4F)c3c2)cn1` [Compound P-2012, N-{2,4-Difluoro-3-[5-(6-methoxy-pyridin-3-yl)-1H-pyrrolo[2,3-b]pyridine-3-carbonyl]-phenyl}-3-fluoro-benzenesulfonamide], the IC50 at B-Raf V600E, at Fms and at B-Raf was at most 10 µM each time.

Regarding `COc1ccc(NC(=O)Nc2cccc(C(=O)c3c[nH]c4ncc(Cl)cc34)c2)cc1` [Compound P-1734, 1-[3-(5-Chloro-1H-pyrrolo[2,3-b]pyridine-3-carbonyl)-phenyl]-3-(4-methoxy-phenyl)-urea], the 50% inhibitory concentration (IC50) at B-Raf V600E, on Fms and on B-Raf was at most 10 µM in each case.

For the compound `O=C(Nc1cccc(C(=O)c2c[nH]c3ncc(-c4ccc(F)cc4)cc23)c1)Nc1cc(C(F)(F)F)ccc1Cl` [Compound P-1752, 1-(2-Chloro-5-trifluoromethyl-phenyl)-3-{3-[5-(4-fluoro-phenyl)-1H-pyrrolo[2,3-b]pyridine-3-carbonyl]-phenyl}-urea], the IC50 at B-Raf V600E and on B-Raf was at most 10 µM in each case.

As for `CC(C)(C)OC(=O)N(Cc1ccc(Cl)cc1)c1ccc(C(O)c2c[nH]c3ncc(-c4cccnc4)cc23)cn1` (stereo not shown) [Compound P-0414], the IC50 on B-Raf V600E and on B-Raf was at most 10 µM throughout.

On to `CCCS(=O)(=O)Nc1cccc(C(=O)c2c[nH]c3ncc(Br)cc23)c1` [Compound P-1116, propane-1-sulfonic acid [3-(5-bromo-1H-pyrrolo[2,3-b]pyridin-3-carbonyl)-phenyl]-amide], for which the IC50 at B-Raf V600E, at B-Raf and on FGFR1 was at most 10 µM throughout.

For the compound `CCCS(=O)(=O)Nc1ccc(F)c(Cc2c[nH]c3ncc(N4CCC(C)CC4)cc23)c1F` [Compound P-0984, Propane-1-sulfonic acid {2,4-difluoro-3-[5-(4-methyl-piperidin-1-yl)-1H-pyrrolo[2,3-b]pyridin-3-ylmethyl]-phenyl}-amide], the IC50 at B-Raf V600E and on B-Raf was at most 10 µM in each case.

As a reminder, the IC50 is the midpoint of a concentration-inhibition curve.
